In ChEMBL document CHEMBL3351490, “The discovery of potent, orally bioavailable pyrimidine-5-carbonitrile-6-alkyl CXCR2 receptor antagonists” (Bioorg Med Chem Lett, 2014):
≈ marks a conversion by molar mass, not a printed value.

What was measured:
[1] = biological target: T1, C-X-C chemokine receptor type 2 (Homo sapiens, UniProt P25025); experiment: Antagonist activity against human recombinant CXCR2 receptor expressed in CHO cell membranes by SPA based [35S]GTPgammaS binding assay; assay type: functional
T1 sequence (P25025 whole entry): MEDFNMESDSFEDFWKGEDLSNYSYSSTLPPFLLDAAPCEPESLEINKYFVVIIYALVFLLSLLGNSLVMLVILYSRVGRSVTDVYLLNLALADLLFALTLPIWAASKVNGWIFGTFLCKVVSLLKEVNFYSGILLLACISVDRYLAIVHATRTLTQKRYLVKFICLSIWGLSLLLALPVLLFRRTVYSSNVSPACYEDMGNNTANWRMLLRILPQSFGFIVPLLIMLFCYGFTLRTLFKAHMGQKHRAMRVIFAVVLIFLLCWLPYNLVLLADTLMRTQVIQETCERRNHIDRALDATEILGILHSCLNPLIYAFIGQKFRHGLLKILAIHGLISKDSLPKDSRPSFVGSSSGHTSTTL

[2] = biological target: T2, C-X-C chemokine receptor type 2 (Homo sapiens) (UniProt P25025); experiment: Antagonist activity against human recombinant CXCR2 receptor expressed in CHO cell membranes at 10 uM by SPA based [35S]GTPgammaS binding assay; assay type: functional
T2 sequence (whole entry): T1 sequence (P25025 whole entry)

[3] = biological target: T1, C-X-C chemokine receptor type 2; experiment: Displacement of [125I]-GRO-alpha from human recombinant CXCR2 receptor expressed in CHO cell membranes
[4] = Oral bioavailability in rat; assay type: ADME, organism-based; settings: in vivo
[5] = Half life in iv dosed rat; assay type: ADME, organism-based; settings: in vivo
[6] = Equilibrium solubility at pH 6.8; assay type: physicochemical; settings: buffer
[7] = Dissociation constant, pKa of the compound; assay type: physicochemical
[8] = Clearance in iv dosed rat; assay type: ADME, organism-based; settings: in vivo
[9] = Protein binding in rat plasma; assay type: ADME, cell-free; settings: read-out: PPB
[10] = Volume of distribution at steady state in iv dosed rat; assay type: ADME, organism-based; settings: in vivo, read-out: Vdss

SMILES | IC50 [1] [nM] | inhibition [2] [%] | other results
N#Cc1c(O)nc(CSc2cccc(F)c2F)nc1C1CC1 | 10000 | – | –
CS(=O)(=O)Nc1nc(SCc2cccc(F)c2F)nc(-c2ccccc2)c1C#N | > 30000 | – | –
N#Cc1c(O)nc(SCc2cccc(F)c2F)nc1[C@H]1C[C@@H]1CO | 6 | – | –
COc1ccc(-c2nc(SCc3cccc(F)c3F)nc(O)c2C#N)cc1C | 4600 | > 50 | –
CC(Sc1nc(O)c(C#N)c(C2CC2)n1)c1ccccc1 (stereo not drawn) | 4800 | – | –
N#Cc1c(O)nc(SCc2cccc(F)c2F)nc1C1CC1 | 140 | > 50 | bioavailability [4]: > 100%; half-life [5]: 6 h; solubility thermodynamic [6]: 10 µg/mL (≈ 31.3 µM); pKa [7]: 8.9; IC50 [3]: 40 nM; clearance [8]: 1.6 mL/min/kg; fraction unbound [9]: < 0.01; Vd [10]: 0.2 L/kg
Oc1nc(SCc2cccc(F)c2F)nc(C2CC2)c1I | 3200 | – | –
CC(C)Oc1ccc(-c2nc(SCc3cccc(F)c3F)nc(O)c2C#N)cc1 | 1600 | > 50 | –
N#Cc1c(O)nc(SCc2cccc(F)c2F)nc1-c1ccccc1 | 3700 | – | –
COc1ccc(-c2nc(SCc3cccc(F)c3F)nc(O)c2C#N)cc1 | 710 | > 50 | –
N#Cc1c(O)nc(SCc2cccc(F)c2F)nc1C1CCCC1 | 4900 | > 50 | –
CC(C)(C)c1nc(SCc2cccc(F)c2F)nc(O)c1C#N | 3700 | > 50 | –
CCOC(=O)[C@H]1C[C@@H]1c1nc(SCc2cccc(F)c2F)nc(O)c1C#N (stereo in doubt; form 1) | 320 | – | –
CCOC(=O)[C@H]1C[C@@H]1c1nc(SCc2cccc(F)c2F)nc(O)c1C#N (stereo in doubt; form 2) | 1300 | – | –

The next lines start with results.

IC50 [1] [nM] | inhibition [2] [%] | SMILES | other results
> 30000 | – | CC(C)(CO)Nc1nc(SCc2cccc(F)c2F)nc(-c2ccccc2)c1C#N | –
1400 | – | Oc1nc(SCc2cccc(F)c2F)nc(C2CC2)c1Br | –
> 30000 | – | N#Cc1c(O)nc(CSc2ccccc2)nc1C1CC1 | –
4700 | > 50 | Cc1cccc(-c2nc(SCc3cccc(F)c3F)nc(O)c2C#N)c1 | –
1700 | > 50 | N#Cc1c(O)nc(SCc2cccc(F)c2F)nc1C1CCC1 | –
780 | > 50 | N#Cc1c(O)nc(SCc2cccc(F)c2F)nc1-c1ccc(O)cc1 | –
6400 | – | CC(C)(Sc1nc(O)c(C#N)c(C2CC2)n1)c1ccccc1 | –
7400 | > 50 | N#Cc1c(O)nc(SCc2cccc(F)c2F)nc1-c1ccc(Cl)cc1 | –
1500 | – | CCOC(=O)[C@H]1C[C@@H]1c1nc(SCc2cccc(F)c2F)nc(O)c1C#N (racemic) | –
> 30000 | – | N#Cc1c(O)nc(SCc2c(Cl)cccc2Cl)nc1-c1ccccc1 | IC50 [3]: 4300 nM
900 | > 50 | CC(C)c1nc(SCc2cccc(F)c2F)nc(O)c1C#N | –
7 | – | N#Cc1c(O)nc(SCc2cccc(F)c2F)nc1[C@H]1C[C@@H]1C(N)=O | –
10 | – | N#Cc1c(O)nc(SCc2cccc(F)c2F)nc1[C@H]1C[C@@H]1C(=O)O | –
510 | – | N#Cc1c(O)nc(SCc2ccccc2)nc1C1CC1 | –
320 | – | Oc1cc(C2CC2)nc(SCc2cccc(F)c2F)n1 | –
1400 | > 50 | Cc1ccc(-c2nc(SCc3cccc(F)c3F)nc(O)c2C#N)cc1 | –
4300 | > 50 | Cc1nc(SCc2cccc(F)c2F)nc(O)c1C#N | –
